Data on 14 compounds can be found in patent publication US9365551B2, “2-(benzyloxy) benzamides as LRRK2 kinase inhibitors” (Glaxo Group Limited, priority 2010, dated 2016).

SMILES strings stand for the structures.

For assay [1], the target named is T1, 6His-Tev-LRRK2 (1326-2527) (Homo sapiens, UniProt Q5S007).
T1 construct: A LRRK2 cDNA encoding residues 1326-2527 was received from Dundee University; made in house; host or cells: Spodoptera frugiperda (Sf9) insect cells, baculovirus (pFB-HTb)
T1 sequence (Q5S007 1326-2527): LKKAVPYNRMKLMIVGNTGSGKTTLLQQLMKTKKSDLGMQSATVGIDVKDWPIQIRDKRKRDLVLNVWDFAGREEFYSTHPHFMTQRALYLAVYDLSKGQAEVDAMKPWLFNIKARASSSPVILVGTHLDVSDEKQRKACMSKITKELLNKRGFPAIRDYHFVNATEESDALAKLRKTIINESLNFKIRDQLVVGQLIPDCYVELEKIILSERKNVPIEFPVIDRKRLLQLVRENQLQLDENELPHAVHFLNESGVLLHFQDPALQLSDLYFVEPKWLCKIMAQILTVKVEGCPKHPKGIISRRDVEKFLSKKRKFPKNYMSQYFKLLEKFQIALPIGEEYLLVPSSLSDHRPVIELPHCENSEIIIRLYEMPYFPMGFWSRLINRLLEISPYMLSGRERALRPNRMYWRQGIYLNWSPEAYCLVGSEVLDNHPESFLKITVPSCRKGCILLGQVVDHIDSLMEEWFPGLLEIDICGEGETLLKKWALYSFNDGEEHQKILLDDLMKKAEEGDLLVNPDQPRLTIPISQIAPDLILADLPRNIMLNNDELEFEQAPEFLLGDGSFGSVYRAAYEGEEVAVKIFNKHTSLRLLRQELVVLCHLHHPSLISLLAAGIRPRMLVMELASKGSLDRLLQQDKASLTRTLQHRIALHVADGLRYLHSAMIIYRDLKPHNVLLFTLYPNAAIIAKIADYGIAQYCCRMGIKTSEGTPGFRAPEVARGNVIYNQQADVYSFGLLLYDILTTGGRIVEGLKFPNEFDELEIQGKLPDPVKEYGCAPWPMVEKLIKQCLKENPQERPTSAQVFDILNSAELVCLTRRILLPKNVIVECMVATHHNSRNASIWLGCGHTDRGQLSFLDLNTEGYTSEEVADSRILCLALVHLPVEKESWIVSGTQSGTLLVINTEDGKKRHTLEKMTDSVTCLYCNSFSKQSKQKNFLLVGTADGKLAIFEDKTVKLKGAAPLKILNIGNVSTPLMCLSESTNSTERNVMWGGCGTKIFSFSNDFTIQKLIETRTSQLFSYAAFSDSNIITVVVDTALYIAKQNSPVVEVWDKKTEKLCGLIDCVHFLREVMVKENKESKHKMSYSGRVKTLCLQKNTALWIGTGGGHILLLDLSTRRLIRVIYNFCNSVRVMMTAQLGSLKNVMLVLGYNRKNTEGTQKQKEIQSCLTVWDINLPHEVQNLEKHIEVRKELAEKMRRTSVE
Briefly: LRRK2 peptide substrate assay. Format: biochemical. To be noted: mean pIC50 of multiple test results. Here is the method: (§1) Compounds of formula (I) may be tested for in vitro kinase activity in accordance with the following assays, using the non natural, in vitro, substrates moesin and the Longer Biotin-LRRKtide. Moesin and a shorter version of the peptide were identified as substrates in Jaleel et al. (2007, Biochem J, 405: 307-317).
LRRK2 Peptide Substrate Assay
a) 100 nl of a 1:4 serial dilution of test compound with a top final assay concentration of 30 μM is added to certain wells in a low volume 384 well black plate. 100 nl of DMSO is used in certain wells as controls.
(§2) b) 3 μl enzyme solution (80 nM purified recombinant 6His-Tev-LRRK2 (1326-2527) in assay buffer: 50 mM Hepes (pH 7.2), 10 mM MgCl2, 150 mM NaCl, 5% glycerol, 0.0025% triton X-100 and 1 mM DTT) is added to certain wells. 3 μl assay buffer is added to certain wells as a 100% inhibition (no enzyme) control. c) After incubation at room temperature for 30 minutes, 3 μl substrate solution (2 μM Biotin-LRRKtide peptide substrate and ATP at Km in assay buffer) is added to each well. Plates are then incubated for a further 1-2 hours at room temperature (incubation time varies depending upon rate and linearity of reaction with differing enzyme batches). d) 6 μl detection solution (50 nM Streptavidin SureLight® APC (PerkinElmer), 4 nM Eu-W1024 labelled anti-rabbit IgG antibody (PerkinElmer), 1:500 dilution (dilution determined on a batch to batch basis) of Phospho-Ezrin (Thr567)/Radixin (Thr564)/Moesin (Thr558) Polyclonal Antibody (New England Biolabs) and 60 mM EDTA in buffer: 40 mM Hepes (pH 7.2), 150 mM NaCl, 0.03% BSA) is added to each well. Plates are then incubated for a further 2 hours at room temperature before reading on a suitable plate reader (Excitation 330 nm, emission 620 nm (Eu) and 665 nm (APC)). Data is analysed using ActivityBase software (IDBS). LRRK2 AlphaScreen Desensitised Protein Substrate Assay a) 100 nl of a 1:4 serial dilution of test compound with a top final assay concentration of 30 μM is added to certain wells in a low volume 384 well black plate. 100 nl of DMSO is used in certain wells as controls. b) 3 μl enzyme solution (80 nM purified recombinant 6His-Tev-LRRK2 (1326-2527) in assay buffer: 50 mM Hepes (pH 7.2), 10 mM MgCl2, 150 mM NaCl, 5% glycerol, 0.0025% triton X-100 and 1 mM DTT) is added to certain wells. 3 μl assay buffer is added to certain wells as a 100% inhibition (no enzyme) control. c) After incubation at room temperature for 30 minutes, 3 μl substrate solution (200 nM GST-PS-Moesin (400-577) and 2 mM ATP in assay buffer) is added to each well. Plates are then incubated for 20 minutes at room temperature. d) 6 μl detection solution (1:250 dilution of AlphaLisa Protein A Acceptor beads (PerkinElmer), 1:64 dilution of AlphaLisa Gluthathione Donor beads (PerkinElmer) and 1:600 dilution (dilution determined on a batch to batch basis) of Phospho-Ezrin (Thr567)/Radixin (Thr564)/Moesin (Thr558) Polyclonal Antibody (New England Biolabs) in a buffer: 50 mM Hepes (pH 7.5), 250 mM NaCl, 60 mM EDTA, 1% PEG and 0.01% Brij 35) is added to each well. Plates are then incubated for a further 2 hours at room temperature in the dark before reading on an EnVision™ plate reader with AlphaScreen HTS turbo option module and AlphaScreen settings. Data is analysed using ActivityBase software (IDBS). Pharmacological Data

For assay [2], the target named is T1, 6His-Tev-LRRK2 (1326-2527). Briefly: LRRK2 AlphaScreen desensitised protein substrate assay. The following applies: mean pIC50 of multiple test results. It counts as biochemical. Here is the method:
as §1, §2
For orientation: Alpha assays give light when donor and acceptor beads are brought close together.

[3] abbreviates: stated as threshold, read-out: pIC50 in the LRRK2 peptide substrate assay (bounds) (converted).
[4] abbreviates: stated as threshold, read-out: pIC50 in the LRRK2 alphascreen desensitised protein substrate assay (bounds) (converted).
The mark [5] stands for this setting: Biotin-LRRKtide peptide substrate, ATP at Km, read-out: LRRK2 peptide substrate assay (pIC50) (converted).
Setting [6] is: GST-PS-Moesin (400-577) substrate, 2 mM ATP, read-out: LRRK2 alphascreen desensitized protein substrate assay (pIC50) (converted).

Turning to `Cn1cc(-c2cc(OCc3ccc(F)cc3)c(C(=O)Nc3ccnnc3)cc2CN2CCOCC2)cn1` [Example 14, 2-{[(4-Fluorophenyl)methyl]oxy}-4-(1-methyl-1H-pyrazol-4-yl)-5-(4-morpholinylmethyl)-N-4-pyridazinylbenzamide], the IC50 in assay [1] (setting [3]) was at most 1260 nM; in assay [2] (setting [4]), at most 25100 nM.

Turning to `Cn1cc(-c2cc(C(=O)Nc3cccnc3)c(OCc3ccc(F)cc3)cc2CN2CCOCC2)cn1` [Example 17, 2-{[(4-Fluorophenyl)methyl]oxy}-5-(1-methyl-1H-pyrazol-4-yl)-4-(4-morpholinylmethyl)-N-3-pyridinylbenzamide], the IC50 in assay [1] (setting [5]) was 50.1 nM; in assay [1] (setting [3]), at most 100 nM; in assay [2] (setting [6]) it was 158 nM; in assay [2] (setting [4]), at most 316 nM.

`Cc1nocc1NC(=O)c1cc(-c2cnn(C)c2)c(CN2CCOCC2)cc1OCc1ccc(F)cc1` [Example 18, 2-{[(4-Fluorophenyl)methyl]oxy}-N-(3-methyl-4-isoxazolyl)-5-(1-methyl-1H-pyrazol-4-yl)-4-(4-morpholinylmethyl)benzamide]: the IC50 in assay [1] (setting [5]) was 12.6 nM; in assay [1] (setting [3]), at most 100 nM; in assay [2] (setting [6]) it was 398 nM; in assay [2] (setting [4]), at most 25100 nM.

In the case of `Cn1cc(-c2cc(C(=O)Nc3cccnc3)c(OCc3ccc(F)cc3F)cc2CN2CCOCC2)cn1` [Example 20, 2-{[(2,4-Difluorophenyl)methyl]oxy}-5-(1-methyl-1H-pyrazol-4-yl)-4-(4-morpholinylmethyl)-N-3-pyridinylbenzamide], the IC50 was 63.1 nM in assay [1] (setting [5]), at most 100 nM in assay [1] (setting [3]), 200 nM in assay [2] (setting [6]) and at most 316 nM in assay [2] (setting [4]).

With `Cc1nocc1NC(=O)c1cc(-c2cnn(C)c2)c(CN2CCOCC2)cc1OCc1ccc(F)cc1F` [Example 22, 2-{[(2,4-Difluorophenyl)methyl]oxy}-N-(3-methyl-4-isoxazolyl)-5-(1-methyl-1H-pyrazol-4-yl)-4-(4-morpholinylmethyl)benzamide], the IC50 is over 25100 nM in assay [1] (setting [3]) and at most 25100 nM in assay [2] (setting [4]).

Consider `Cn1cc(-c2cc(C(=O)Nc3cccnc3)c(OCc3ccccc3)cc2C(=O)N2CCOCC2)cn1` [Example 23, 5-(1-Methyl-1H-pyrazol-4-yl)-4-(4-morpholinylcarbonyl)-2-[(phenylmethyl)oxy]-N-3-pyridinylbenzamide], for which the IC50 in assay [1] (setting [5]) was 12.6 nM; in assay [1] (setting [3]), at most 100 nM; in assay [2] (setting [6]) it was 200 nM; in assay [2] (setting [4]) it was at most 316 nM.

For the compound `Cn1cc(-c2cc(C(=O)Nc3ccnnc3)c(OCc3ccccc3)cc2C(=O)N2CCOCC2)cn1` [Example 24, 5-(1-Methyl-1H-pyrazol-4-yl)-4-(4-morpholinylcarbonyl)-2-[(phenylmethyl)oxy]-N-4-pyridazinylbenzamide], the IC50 in assay [1] (setting [3]) was at most 1260 nM; in assay [2] (setting [4]), at most 25100 nM.

For `Cc1nocc1NC(=O)c1cc(-c2cnn(C)c2)c(C(=O)N2CCOCC2)cc1OCc1ccccc1` [Example 25, N-(3-Methyl-4-isoxazolyl)-5-(1-methyl-1H-pyrazol-4-yl)-4-(4-morpholinylcarbonyl)-2-[(phenylmethyl)oxy]benzamide], the values for the IC50 in assay [1] (setting [3]) and in assay [2] (setting [4]) were at most 100 nM and at most 25100 nM, respectively.

On to `Cn1cc(-c2cc(C(=O)Nc3cccnc3)c(OCc3ccc(F)cc3)cc2C(=O)N2CCOCC2)cn1` [Example 26, 2-{[(4-Fluorophenyl)methyl]oxy}-5-(1-methyl-1H-pyrazol-4-yl)-4-(4-morpholinylcarbonyl)-N-3-pyridinylbenzamide], for which the IC50 in assay [1] (setting [3]) is at most 100 nM; in assay [2] (setting [4]) it was at most 316 nM.

Take `Cn1cc(-c2cc(C(=O)Nc3ccnnc3)c(OCc3ccc(F)cc3)cc2C(=O)N2CCOCC2)cn1` [Example 27, 2-{[(4-Fluorophenyl)methyl]oxy}-5-(1-methyl-1H-pyrazol-4-yl)-4-(4-morpholinylcarbonyl)-N-4-pyridazinylbenzamide]: the IC50 in assay [1] (setting [5]) is 50.1 nM; in assay [1] (setting [3]), at most 100 nM; in assay [2] (setting [6]) it was 1580 nM; in assay [2] (setting [4]), at most 25100 nM.

Consider `Cn1cc(-c2cc(OCc3ccc(F)cc3)c(C(=O)Nc3cccnc3)cc2C(=O)N2CCOCC2)cn1` [Example 28, 2-{[(4-Fluorophenyl)methyl]oxy}-4-(1-methyl-1H-pyrazol-4-yl)-5-(4-morpholinylcarbonyl)-N-3-pyridinylbenzamide], for which the values for the IC50 in assay [1] (setting [3]) and in assay [2] (setting [4]) were at most 1260 nM and at most 25100 nM, respectively.

As for `Cn1cc(-c2cc(C(=O)Nc3cccnc3)c(OCc3ccccc3)cc2C(=O)N2CCCCC2)cn1` [Example 31, 5-(1-Methyl-1H-pyrazol-4-yl)-2-[(phenylmethyl)oxy]-4-(1-piperidinylcarbonyl)-N-3-pyridinylbenzamide], the IC50 in assay [1] (setting [5]) is 6.31 nM; in assay [1] (setting [3]), at most 10 nM; in assay [2] (setting [6]) it was 50.1 nM; in assay [2] (setting [4]) it was at most 316 nM.

As for `CN(C)C(=O)c1cc(OCc2ccccc2)c(C(=O)Nc2cccnc2)cc1-c1cnn(C)c1` [Example 32], the IC50 was 50.1 nM in assay [1] (setting [5]), at most 100 nM in assay [1] (setting [3]), 200 nM in assay [2] (setting [6]) and at most 316 nM in assay [2] (setting [4]).

Turning to `O=C(Nc1cccnc1)c1cc(C(F)(F)F)c(CN2CCOCC2)cc1OCc1ccccc1` [Example 33, 2-(Benzyloxy)-4-(morpholinomethyl)-N-(pyridin-3-yl)-5-(trifluoromethyl)benzamide], the figures for the IC50 in assay [1] (setting [3]) and in assay [2] (setting [4]) were at most 100 nM and at most 316 nM, respectively.
